The IC50 is the concentration at which inhibition is half-maximal.

Test [1] has as its target T1, human JAK1 (Homo sapiens, UniProt P23458).
T1 construct: catalytic domain, amino acids 866-1154; catalog number PV4774; purchased Invitrogen PV4774
In words: JAK1 inhibition assay (polyGT substrate / Ulight-JAK1 peptide). The test is classed as biochemical. The note with it: recombinant human JAK1 catalytic domain; polyGT or Ulight-JAK1 peptide assay. A digest of the protocol:
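Signal scaled between vehicle and 10 μM staurosporine. Radiometric polyGT reactions ran 45 min at 30 °C, counted after phosphoric-acid stop. Ulight peptide reactions ran 60 min at room temperature, fluorescence read after adding Eu-PT66 detection mix with EDTA.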

For test [2], the target named is T2, human JAK2 (Homo sapiens, UniProt O60674).
T2 construct: catalytic domain (amino acids 808-1132; catalog number PV4210); GST; purchased Invitrogen PV4210
T2 sequence (O60674 808-1132): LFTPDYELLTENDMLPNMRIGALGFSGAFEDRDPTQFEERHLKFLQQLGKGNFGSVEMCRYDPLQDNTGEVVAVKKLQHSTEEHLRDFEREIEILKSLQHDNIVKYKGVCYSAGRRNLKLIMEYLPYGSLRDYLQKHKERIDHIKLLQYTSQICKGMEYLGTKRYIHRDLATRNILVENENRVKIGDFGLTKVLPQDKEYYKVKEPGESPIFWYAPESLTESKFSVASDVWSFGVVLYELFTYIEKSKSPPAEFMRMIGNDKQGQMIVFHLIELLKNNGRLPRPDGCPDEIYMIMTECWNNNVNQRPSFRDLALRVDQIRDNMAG
In words: JAK2 inhibition assay (polyGT substrate / Ulight-JAK1 peptide). It counts as biochemical. As to conditions: recombinant human JAK2 catalytic domain; polyGT or Ulight-JAK1 peptide assay. A digest of the protocol:
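Two JAK2 formats: a ^33P-ATP polyGT assay (1 μM cold ATP, 90 min, 30° C., cpm read-out) and a Ulight-JAK1 peptide assay read by Europium-anti-phosphotyrosine fluorescence after 60 min at room temperature.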

Test [3] has as its target T3, human JAK3 (Homo sapiens, UniProt P52333).
T3 construct: catalytic domain (amino acids 781-1124; catalog number PV3855); purchased Invitrogen PV3855
Kind of test: JAK3 inhibition assay. The test is classed as biochemical. As to conditions: recombinant human JAK3 catalytic domain; polyGT substrate. The gist of the method: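 Radiometric kinase assay: 0.5 ng JAK3 with 2.5 μg polyGT in Tris pH 7.5/MgCl2 buffer, 1 μM ATP plus 0.25 μCi 33P-γ-ATP, 1% DMSO, 45 min at 30 °C, stopped with phosphoric acid.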

The target in test [4] is T4, human TYK2 (Homo sapiens, UniProt P29597).
T4 construct: catalytic domain (amino acids 871-1187; catalog number 08-147); purchased Carna Biosciences 08-147
T4 sequence (P29597 871-1187): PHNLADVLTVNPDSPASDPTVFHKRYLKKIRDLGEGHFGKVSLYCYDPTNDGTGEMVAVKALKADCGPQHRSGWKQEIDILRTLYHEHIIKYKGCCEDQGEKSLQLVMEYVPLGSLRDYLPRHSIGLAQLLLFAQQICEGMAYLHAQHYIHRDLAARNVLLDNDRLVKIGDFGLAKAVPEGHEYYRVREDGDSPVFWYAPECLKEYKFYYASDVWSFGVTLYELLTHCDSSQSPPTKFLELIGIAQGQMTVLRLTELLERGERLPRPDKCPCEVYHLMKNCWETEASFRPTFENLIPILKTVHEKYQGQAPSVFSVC
In words: TYK2 inhibition assay. The test is classed as biochemical. The note with it: recombinant human TYK2 catalytic domain, polyGT substrate. A digest of the protocol:
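Radiometric kinase reaction run 90 min at 30 °C, stopped with phosphoric acid, washed and scintillation-counted.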

Test [5] has as its system CTLL-2 cell line. In words: CTLL2 viability assay. The test is classed as cell-based. As to conditions: Mus musculus, IL-2 dependent CTLL2 viability, 24 h, ATP-lite. From the text: The protocol describes the methods to analyse the activity of compounds on their ability to sustain the IL2-dependent viability of CTLL2.
Final DMSO concentration was 0.1%.

The test system of test [6] is pSTAT1(2)-luciferase reporter in HeLa cells triggered with human OSM. Kind of test: JAK-STAT signalling assay. The test is classed as cell-based. As to conditions: Homo sapiens, HeLa, HeLa cells, pSTAT1(2)-luciferase reporter, human OSM 33 ng/mL; read-out: JAK-STAT IC50. The gist of the method:
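Compound added 60 min before 33 ng/mL (final) human OSM; after overnight stimulation at 37 °C, luciferase signal from a transiently transfected pSTAT1(2) reporter in HeLa cells was read, with LacZ as internal control. EC50 derived from percent-inhibition dose-response curves.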
On the technique in general: A reporter such as luciferase makes a cellular process visible.

T3 sequence (P52333 781-1124): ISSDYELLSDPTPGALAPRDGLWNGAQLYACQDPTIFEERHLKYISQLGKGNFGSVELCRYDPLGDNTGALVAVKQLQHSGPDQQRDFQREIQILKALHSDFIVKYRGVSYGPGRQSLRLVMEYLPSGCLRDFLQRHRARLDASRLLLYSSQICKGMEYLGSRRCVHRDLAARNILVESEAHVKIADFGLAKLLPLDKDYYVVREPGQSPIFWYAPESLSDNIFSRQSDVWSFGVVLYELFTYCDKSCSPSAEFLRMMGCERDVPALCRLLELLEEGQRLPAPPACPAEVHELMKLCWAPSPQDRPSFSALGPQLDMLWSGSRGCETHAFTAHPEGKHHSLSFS
T1 sequence (P23458 866-1154): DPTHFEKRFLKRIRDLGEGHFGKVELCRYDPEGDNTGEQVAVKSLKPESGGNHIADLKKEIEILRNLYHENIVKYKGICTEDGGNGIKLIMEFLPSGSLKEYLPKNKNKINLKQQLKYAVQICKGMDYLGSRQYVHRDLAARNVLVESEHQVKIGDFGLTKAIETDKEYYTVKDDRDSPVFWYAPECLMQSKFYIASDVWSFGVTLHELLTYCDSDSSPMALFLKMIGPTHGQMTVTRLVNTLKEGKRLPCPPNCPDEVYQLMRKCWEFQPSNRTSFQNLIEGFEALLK

As for `CN(c1cc2c(cn1)ncn2C)c1ccc(C2CN(S(=O)(=O)N3CCCCC3)C2)cc1OC(F)F` [Compound 372, {2-Difluoromethoxy-4-[1-(piperidine-1-sulfonyl)-azetidin-3-yl]-phenyl}-methyl-(1-methyl-1H-imidazo[4,5-c]pyridin-6-yl)-amine], the IC50 in test [1] was 0.01 to 100 nM; in test [2] it was 101 to 500 nM; in test [3], 501 to 1000 nM; in test [4], 101 to 500 nM; in test [5], above 1000 nM.
For the molecule `CCc1cc(CNS(=O)(=O)N2CCC(F)(F)C2)ccc1N(C)c1cc2c(cn1)ncn2C` [Compound 425, 3,3-Difluoro-pyrrolidine-1-sulfonic acid 3-ethyl-4-[methyl-(1-methyl-1H-imidazo[4,5-c]pyridin-6-yl)-amino]-benzylamide], the IC50 in test [1] was 0.01 to 100 nM; in test [2] it was 0.01 to 100 nM; in test [3] it was 101 to 500 nM; in test [4], 101 to 500 nM; in test [5] it was above 1000 nM.
On to `CCc1cc(C(C#N)N2CCC(O)CC2)ccc1N(C)c1cc2c(cn1)ncn2C` (stereo not drawn) [Compound 447, {3-Ethyl-4-[methyl-(1-methyl-1H-imidazo[4,5-c]pyridin-6-yl)-amino]-phenyl}-(4-hydroxy-piperidin-1-yl)-acetonitrile], for which the concentration for half-maximal inhibition (IC50) is 0.01 to 100 nM in test [1]; 0.01 to 100 nM in test [2]; 101 to 500 nM in test [3]; 0.01 to 100 nM in test [4]; above 1000 nM in test [5].
Consider `CCc1cc(CNS(=O)(=O)N2CCOCC2)ccc1N(C)c1cc2c(cn1)ncn2C` [Compound 426, Morpholine-4-sulfonic acid 3-ethyl-4-[methyl-(1-methyl-1H-imidazo[4,5-c]pyridin-6-yl)-amino]-benzylamide], for which the IC50 is 0.01 to 100 nM in test [1]; 0.01 to 100 nM in test [2]; 101 to 500 nM in test [3]; 101 to 500 nM in test [4]; above 1000 nM in test [5].
With `CCc1cc(N2CC[C@@H](F)C2)ncc1N(C)c1cc2c(cn1)ncn2C` [Compound 414, [4-Ethyl-6-((R)-3-fluoro-pyrrolidin-1-yl)-pyridin-3-yl]-methyl-(1-methyl-1H-imidazo[4,5-c]pyridin-6-yl)-amine], the IC50 is 0.01 to 100 nM in test [1]; 0.01 to 100 nM in test [2]; 101 to 500 nM in test [3]; 0.01 to 100 nM in test [4]; above 1000 nM in test [5].
Regarding `CCc1cc(N2CC[C@H](F)C2)ncc1N(C)c1cc2c(cn1)ncn2C` [Compound 415, [4-Ethyl-6-((S)-3-fluoro-pyrrolidin-1-yl)-pyridin-3-yl]-methyl-(1-methyl-1H-imidazo[4,5-c]pyridin-6-yl)-amine], the IC50 in test [1] is 0.01 to 100 nM; in test [2], 0.01 to 100 nM; in test [3] it was 0.01 to 100 nM; in test [4], 0.01 to 100 nM; in test [5] it was above 1000 nM.
For `CCc1cc(CN2CCC(F)(F)CC2)ccc1N(C)c1cc2c(cn1)ncn2C` [Compound 422, [4-(4,4-Difluoro-piperidin-1-ylmethyl)-2-ethyl-phenyl]-methyl-(1-methyl-1H-imidazo[4,5-c]pyridin-6-yl)-amine], the IC50 in test [1] is 0.01 to 100 nM; in test [2], 501 to 1000 nM; in test [3], above 1000 nM; in test [4], 501 to 1000 nM; in test [5] it was above 1000 nM.
In the case of `CCc1cc(C(C#N)N2CCC[C@@H]2COC)ccc1N(C)c1cc2c(cn1)ncn2C` (stereo partly drawn) [Compound 439, {3-Ethyl-4-[methyl-(1-methyl-1H-imidazo[4,5-c]pyridin-6-yl)-amino]-phenyl}-((R)-2-methoxymethyl-pyrrolidin-1-yl)-acetonitrile], the IC50 in test [1] was 0.01 to 100 nM; in test [2], 101 to 500 nM; in test [3] it was 501 to 1000 nM; in test [4], 0.01 to 100 nM; in test [5] it was above 1000 nM.
On to `CN(c1cc2c(cn1)ncn2C)c1ccc(C2CN(CC(F)F)C2)cc1OC(F)F` [Compound 365, {4-[1-(2,2-Difluoro-ethyl)-azetidin-3-yl]-2-difluoromethoxy-phenyl}-methyl-(1-methyl-1H-imidazo[4,5-c]pyridin-6-yl)-amine], for which the IC50 in test [1] is 0.01 to 100 nM; in test [2], 101 to 500 nM; in test [3] it was 101 to 500 nM; in test [4], 501 to 1000 nM; in test [5] it was above 1000 nM.
In the case of `CCc1cc(C2CCC2)ncc1N(C)c1cc2c(cn1)ncn2C` [Compound 434, (6-Cyclobutyl-4-ethyl-pyridin-3-yl)-methyl-(1-methyl-1H-imidazo[4,5-c]pyridin-6-yl)-amine], the IC50 is 0.01 to 100 nM in test [1]; 101 to 500 nM in test [2]; above 1000 nM in test [3]; 101 to 500 nM in test [4]; above 1000 nM in test [5].
With `CCc1cc(C(C#N)N2CCC(C#N)CC2)ccc1N(C)c1cc2c(cn1)ncn2C` (stereo not drawn) [Compound 435, 1-(Cyano-{3-ethyl-4-[methyl-(1-methyl-1H-imidazo[4,5-c]pyridin-6-yl)-amino]-phenyl}-methyl)-piperidine-4-carbonitrile], the IC50 in test [1] is 0.01 to 100 nM; in test [2], 0.01 to 100 nM; in test [3], 101 to 500 nM; in test [4] it was 0.01 to 100 nM; in test [5], above 1000 nM.
Regarding `CCc1cc(C2CCN(CC#N)CC2)ncc1N(C)c1cc2c(cn1)ncn2C` [Compound 384, {4-Ethyl-5-(methyl-(1-methyl-1H-imidazo[4,5-c]pyridin-6-yl)-amino)-3′,4′,5′,6′-tetrahydro-2′H-(2,4′]bipyridinyl-1′-yl}-acetonitrile], the IC50 in test [1] was 0.01 to 100 nM; in test [2], 101 to 500 nM; in test [3], above 1000 nM; in test [4], 101 to 500 nM; in test [5], above 1000 nM.
As to `CCc1cc(C(C#N)N2CC(O)C2)ccc1N(C)c1cc2c(cn1)ncn2C` (stereo not drawn) [Compound 450, {3-Ethyl-4-[methyl-(1-methyl-1H-imidazo[4,5-c]pyridin-6-yl)-amino]-phenyl}-(3-hydroxy-azetidin-1-yl)-acetonitrile], the IC50 in test [1] is 0.01 to 100 nM; in test [2], 0.01 to 100 nM; in test [3], 101 to 500 nM; in test [4], 0.01 to 100 nM; in test [5], above 1000 nM.
Consider `CCOC(=O)C1CN(C(C#N)c2ccc(N(C)c3cc4c(cn3)ncn4C)c(CC)c2)C1` (stereo not drawn) [Compound 453, 1-(Cyano-{3-ethyl-4-[methyl-(1-methyl-1H-imidazo[4,5-c]pyridin-6-yl)-amino]-phenyl}-methyl)-azetidine-3-carboxylic acid ethyl ester], for which the IC50 is 0.01 to 100 nM in test [1]; 0.01 to 100 nM in test [2]; 501 to 1000 nM in test [3]; 0.01 to 100 nM in test [4]; above 1000 nM in test [5].
For `CCc1cc(C2CCCC2)ncc1N(C)c1cc2c(cn1)ncn2C` [Compound 433, (6-Cyclopentyl-4-ethyl-pyridin-3-yl)-methyl-(1-methyl-1H-imidazo[4,5-c]pyridin-6-yl)-amine], the IC50 in test [1] was 0.01 to 100 nM; in test [2], 0.01 to 100 nM; in test [3], 101 to 500 nM; in test [4] it was 101 to 500 nM; in test [5], above 1000 nM.
Regarding `CCc1cc(C(C#N)N2CC[C@@H](F)C2)ccc1N(C)c1cc2c(cn1)ncn2C` (stereo partly drawn) [Compound 438, {3-Ethyl-4-[methyl-(1-methyl-1H-imidazo[4,5-c]pyridin-6-yl)-amino]-phenyl}-((R)-3-fluoro-pyrrolidin-1-yl)-acetonitrile], the IC50 in test [1] is 0.01 to 100 nM; in test [2], 0.01 to 100 nM; in test [3], 101 to 500 nM; in test [4], 0.01 to 100 nM; in test [5], above 1000 nM.
Regarding `CCc1cc(-c2ccc(C)nc2)ccc1N(C)c1cc2c(cn1)ncn2C` [Compound 131, N-(2-ethyl-4-(6-methylpyridin-3-yl)phenyl)-N,1-dimethyl-1H-imidazo[4,5-c]pyridin-6-amine], the IC50 in test [1] was 0.01 to 100 nM; in test [3], above 1000 nM; in test [4] it was 101 to 500 nM; in test [6], 501 to 1000 nM.
